According to patent publication US12624012B2, “14-chloro-β-elemene nitric oxide donor derivative and preparation method and use thereof” (HANGZHOU NORMAL UNIVERSITY, priority 2021, dated 2026):

Experiments:
[1] = system: NCI-H520; test: In vitro anti-tumor activity evaluation test (CCK-8), NCI-H520; type: cell-based, human; details: Homo sapiens, NCI-H520, 72 h; for inhibition at 1 µM: read-out: Inhibitory rates against tumor cell lines; for IC50: read-out: IC50 against different tumor cell lines
Protocol: (§1) • (1) Cells were digested and counted. Cell suspensions (H520, SW620 5.0×10^4 cells/mL, and U87MG 3.5×10^4 cells/mL) were prepared. 100 μL of cell suspension was added to each well of a 96-well cell culture plate. • (2) The 96-well cell culture plate was incubated in a 37° C., 5%, CO2 incubator for 24 h. • (3) A drug was diluted with a culture medium to a desired working solution concentration. 100 μL of the corresponding drug-containing culture medium was added to each well. At the same time, a negative control group and a positive control group were set up. • (4) The 96-well cell culture plate was incubated in a 37° C., 5%, CO2 incubator for 72 h. • (5) The 96-well plate was stained with CCK-8, and at λ=450 nm, the OD value was determined. • 1) 10 μL of CCK-8 was added to each well. The culture plate continued to be incubated in the incubator for 2-3 h. • 2) The culture plate was rocked for 10 min to gently mix and remove air bubbles from the 96-well plate. • 3) At λ=450 nm, the OD value of each well was read by the enzyme marker, and the inhibitory rates were calculated. • (6) According to the following equation (1), the growth inhibitory rate of the tumor cells was obtained. The obtained results were substituted into an IC 50 calculation software SPSS17.0 to find out the IC50 value.

[2] = In vitro NO release test (incubation with L-cysteine, OD at 550 nm); details: 100 μM solution with cysteine solution, 37° C.
Protocol: • (1) Sodium nitrite solutions with different concentrations were prepared. A calibration curve was drawn. • (2) The sample was treated. A 100 μM solution was prepared. 2.5 mL of the prepared compound solution and 2.5 mL of the cysteine solution were taken and incubated at 37° C. for 120 min, and the resulting mixture was sampled at different time points. • (3) A blank hole and a standard hole were set. 160 μL of the sample was collected and mixed evenly with 0.08 mL of a developer and stood at 37° C. for 15 min. At λ=550 nm, the OD value of absorbance was measured by the enzyme marker. The NO release levels were obtained by substituting the value into the standard curve.

[3] = system: SW620; test: In vitro anti-tumor activity evaluation test (CCK-8), SW620; type: cell-based, human; details: Homo sapiens, SW-620, SW620, 72 h; for inhibition at 1 µM: read-out: Inhibitory rates against tumor cell lines; for IC50: read-out: IC50 against different tumor cell lines
Protocol: as §1

[4] = system: U87MG; test: In vitro anti-tumor activity evaluation test (CCK-8), U87MG; type: cell-based, human; details: Homo sapiens, U-87 MG, U87MG, 72 h; for inhibition at 1 µM: read-out: Inhibitory rates against tumor cell lines; for IC50: read-out: IC50 against different tumor cell lines
Protocol: as §1

SMILES | inhibition at 1 µM [1] [%] | IC50 [1] [nM] | NO-release concentrations ([2]; 5 min) [µM] | NO-release concentrations ([2]; 10 min) [µM] | NO-release concentrations ([2]; 20 min) [µM] | NO-release concentrations ([2]; 30 min) [µM] | NO-release concentrations ([2]; 60 min) [µM] | NO-release concentrations ([2]; 90 min) [µM] | NO-release concentrations ([2]; 120 min) [µM] | inhibition at 1 µM [3] [%] | inhibition at 1 µM [4] [%] | IC50 [4] [nM] | IC50 [3] [nM]
C=C[C@]1(C)CC[C@@H](C(=C)CN2CC[C@H](OC(=O)CCC(=O)OCC#CCOc3no[n+]([O-])c3S(=O)(=O)c3ccccc3)C2)C[C@H]1C(=C)CCl [Example 11, 4-((4-((4-(((S)-1-(2-((1R,3R,4S)-3-(3-chloroprop-1-en-2-yl)-4-methyl-4-vinylcyclohexyl)allyl)pyrrolidine-3-ly)oxy)-4-oxobutanoyl)oxy)but-2-yn-1-yl)oxy)-3-(phenylsulfonyl)-1,2,5-oxadiazole 2-oxide] | 46 ± 1 | 1020 ± 41 | 9.49 | 10.79 | 14.43 | 15.99 | 24.58 | 37.37 | 50.99 | 30.5 ± 3.3 | 42 ± 6.5 | – | –
C=C[C@]1(C)CC[C@@H](C(=C)CN2CCC(OC(=O)CCCC(=O)OCC#CCOc3no[n+]([O-])c3S(=O)(=O)c3ccccc3)C2)C[C@H]1C(=C)CCl (stereo partly drawn) [Example 12, 4-((4-((5-(((S)-1-(2-((1R,3R,4S)-3-(3-chloroprop-1-en-2-yl)-4-methyl-4-vinylcyclohexyl)allyl)pyrrolidine-3-ly)oxy)-5-oxopentanoyl)oxy)but-2-yn-1-yl)oxy)-3-(phenylsulfonyl)-1,2,5-oxadiazole 2-oxide] | 39.1 ± 0.7 | – | 13.20 | 16.04 | 21.29 | 26.90 | 46.58 | 74.45 | 103.92 | 31.7 ± 1.4 | 47.8 ± 1.1 | 898 ± 54 | –
C=C[C@]1(C)CC[C@@H](C(=C)CN2CCC(COC(=O)CCCC(=O)OCCOc3no[n+]([O-])c3S(=O)(=O)c3ccccc3)CC2)C[C@H]1C(=C)CCl [Example 14, 4-(2-((5-((1-(2-((1R,3R,4S)-3-(3-chloroprop-1-en-2-yl)-4-methyl-4-vinylcyclohexyl)allyl)piperidin-4-yl)methoxyl)-5-oxopentanoyl)oxy)ethyoxyl)-3-(phenylsulfonyl)-1,2,5-oxadiazole 2-oxide] | 50.1 ± 1.1 | 846 ± 27 | 12.34 | 13.53 | 15.94 | 18.96 | 29.94 | 45.42 | 62.49 | 55.4 ± 1.5 | 54.8 ± 1.9 | 477 ± 11 | 814 ± 68
C=C[C@]1(C)CC[C@@H](C(=C)CN2CCC(COC(=O)CCC(=O)OCC#CCOc3no[n+]([O-])c3S(=O)(=O)c3ccccc3)CC2)C[C@H]1C(=C)CCl [Example 15, 4-((4-((4-((1-(2-((1R,3R,4S)-3-(3-chloroprop-1-en-2-yl)-4-methyl-4-vinylcyclohexyl)allyl)piperidin-4-yl)methoxyl)-4-oxobutanoyl)oxy)but-2-yn-1-yl)oxy)-3-(phenylsulfonyl)-1,2,5-oxadiazole 2-oxide] | 45.9 ± 1.4 | 1040 ± 33 | 8.67 | 10.07 | 12.979 | 15.92 | 25.47 | 36.31 | 48.15 | 31.3 ± 0.3 | 40.5 ± 3.3 | – | –
C=C[C@]1(C)CC[C@@H](C(=C)CN2CCC(COC(=O)CCCC(=O)OCC#CCOc3no[n+]([O-])c3S(=O)(=O)c3ccccc3)CC2)C[C@H]1C(=C)CCl [Example 16, 4-((4-((5-((1-(2-((1R,3R,4S)-3-(3-chloroprop-1-en-2-yl)-4-methyl-4-vinylcyclohexyl)allyl)piperidin-4-yl)methoxyl)-5-oxopentanoyl)oxy)but-2-yn-1-yl)oxy)-3-(phenylsulfonyl)-1,2,5-oxadiazole 2-oxide] | 52.3 ± 1.1 | 1050 ± 13 | 16.99 | 18.93 | 22.62 | 27.04 | 42.47 | 64.24 | 86.29 | 39.8 ± 1.9 | 52.2 ± 3.4 | 2160 ± 548 | –
C=C[C@]1(C)CC[C@@H](C(=C)CN2CCCC(COC(=O)CCC(=O)OCCOc3no[n+]([O-])c3S(=O)(=O)c3ccccc3)C2)C[C@H]1C(=C)CCl (stereo partly drawn) [Example 17, 4-(2-((4-((1-(2-((1R,3R,4S)-3-(3-chloroprop-1-en-2-yl)-4-methyl-4-vinylcyclohexyl)allyl)piperidin-3-yl)methoxyl)-4-oxobutanoyl)oxy)ethyoxyl)-3-(phenylsulfonyl)-1,2,5-oxadiazole 2-oxide] | 45.4 ± 1.9 | – | 4.84 | 5.66 | 6.95 | 8.44 | 12.43 | 17.81 | 22.91 | 38.3 ± 3 | 51 ± 2.2 | 811 ± 16 | 1090 ± 40
C=C[C@]1(C)CC[C@@H](C(=C)CN2CCCC(COC(=O)CCCC(=O)OCCOc3no[n+]([O-])c3S(=O)(=O)c3ccccc3)C2)C[C@H]1C(=C)CCl (stereo partly drawn) [Example 18, 4-(2-((5-((1-(2-((1R,3R,4S)-3-(3-chloroprop-1-en-2-yl)-4-methyl-4-vinylcyclohexyl)allyl)piperidin-3-yl)methoxyl)-5-oxopentanoyl)oxy)ethyoxyl)-3-(phenylsulfonyl)-1,2,5-oxadiazole 2-oxide] | 43.9 ± 1 | 1210 ± 152 | 8.89 | 10.18 | 12.42 | 14.32 | 21.50 | 32.40 | 42.83 | 46.1 ± 0.9 | 48.3 ± 1.5 | – | –
C=C[C@]1(C)CC[C@@H](C(=C)CN2CCCC(COC(=O)CCC(=O)OCC#CCOc3no[n+]([O-])c3S(=O)(=O)c3ccccc3)C2)C[C@H]1C(=C)CCl (stereo partly drawn) [Example 19, 4-((4-((4-((1-(2-((1R,3R,4S)-3-(3-chloroprop-1-en-2-yl)-4-methyl-4-vinylcyclohexyl)allyl)piperidin-3-yl)methoxyl)-4-oxobutanoyl)oxy)but-2-yn-1-yl)oxy)-3-(phenylsulfonyl)-1,2,5-oxadiazole 2-oxide] | 46.1 ± 2.7 | – | 13.76 | 15.87 | 19.21 | 22.88 | 34.60 | 48.73 | 56.52 | 40.6 ± 2.8 | 41.9 ± 1.1 | 985 ± 12 | –
